“Also recorded” adds a separate entry of the source.
What was measured:
3T3-LI adipocytes = assay: [3H]-2-deoxyglucose uptake by fully differentiated 3T3-LI adipocytes; assay type: cell-based, mouse; conditions: 3 μg/ml for 24 hours
Experimental: The cells were exposed to the test compounds at a concentration of 3 μg/ml for 24 hours before testing for [^3H]-2-deoxyglucose uptake.
3T3-LI cells are a mouse fibroblast cell line which when cultured under specific conditions, differentiate into adipocytes.
Differentiation of 3T3-LI cells into adipocytes was achieved using the following protocol. 3T3-L1 cells were seeded in 24-well plates and cultured in 3T3-L1 maintenance medium (DMEM containing 10% fetal bovine serum, 4 mM L-glutamine 1 mM, sodium pyruvate) until the cells were 100% confluent. The cells were then fed with 3T3-L1 maintenance medium and cultured for a further 48 h. To initiate differentiation into adipocytes, the medium was changed to Differentiation medium 1 (DMEM containing 10% fetal bovine serum, 4 mM L-glutamine, 1 mM sodium pyruvate, 0.5 mM IBMX, […]), and cultured for a further 2 days. The medium was then changed to Differentiation medium 2 (DMEM containing 10% fetal bovine serum, 4 mM L-glutamine, 1 mM sodium pyruvate, 1 mg/ml insulin), and cultured for a further 2 days. The medium was then changed to Adipocyte Maintenance medium (DMEM containing 10% fetal bovine serum, 4 mM L-glutamine, 1 mM sodium pyruvate), and cultured for a further 7 days. During this time, the medium was changed every other day. The now fully differentiated adipocytes were utilized for glucose uptake experiments (day 11 from initiation of differentiation). Stock solutions of the HBD1 peptides to be tested were prepared by dilution with 0.9% NaCl solution under sterile conditions in a laminar flow cabinet to a concentration of 1 mg/ml, based on net peptide content. The solutions were homogenized by gentle inversion. Test items were prepared from the stock solutions, and remaining stock solution was aliquoted and stored at −20° C. and used without repeated freeze-thaw cycles.
Glucose uptake experiments were carried our using the following protocol. Prior to beginning the experiment, 100 ml of Krebs Ringer bicarbonate buffer (KRBB)(25 mM Hepes pH 7.4, 118 mM NaCl, 5 mM NaHCO3, 4.7 mM KCl, 1.2 mM KH2PO4, 1.2 mM MgSO4, 2.5 mM CaCl2, 0.2% BSA—Filtered using a 0.2 μm filter) and 100 ml of Incubation medium (DMEM containing 4 mM L-glutamine, 1 mM sodium pyruvate, 1% penicillin streptomycin, 0.2% BSA—Filtered using a 0.2 μm filter) were pre-warmed to 37° C., and 500 ml of KRBB was chilled on ice. Stock solutions of test compounds were diluted to 3 μg/ml final concentrations in pre-warmed Incubation medium and in pre-warmed KRBB. Insulin (positive control), previously diluted 1:1000 in sterile 0.9% NaCl, was further diluted in 10 ml of both medium and buffer to a final concentration of 1 nM. All traces of the medium were carefully removed from the cells using a fine tip. […]

mice = conditions: publication Xi, 2013; cited from earlier work
AMPK = AMPK phosphorylation (immunoblot anti-pAMPK T172) in C2C12 myotubes; assay type: cell-based, mouse; conditions: C2C12 myotubes treated with SEQ ID NO: 73 (FIG. 7)
Experimental: In particular: HBD1 SEQ ID NO: 73 (C18:0-HLGLEEPKK). The AMPK pathway is both insulin and IGF1 independent, but acts ultimately to induce GLUT4 translocation to the cell membrane to facilitate the uptake and metabolism of glucose.
For signaling studies the cells were prepared the same way except 6-well plates were used. After 6 days incubation in differentiating medium, the cells were washed with serum-free medium. The various treatments were then added in serum free medium containing 0.1% BSA. HBD1 peptides were added and incubated for 8 hours. When utilizing IGF-I, incubation was for 15 minutes after IGF-1 addition. Following incubation the cells were lysed in RIPA buffer and sonicated. The cell lysate was centrifuged and the supernatant analyzed for either Akt or AMPK by SDS PAGE using a 10% gel followed by immunoblotting with the appropriate antibody.
To examine further the intracellular transduction pathways utilized by the HBD1 peptides, following treatment with HBD1 peptide SEQ ID NO: 73 (C18:0-HLGLEEPKK), cell lysate proteins, were separated by SDS PAGE and immunoblotted with anti-pAMPK T172.

[1] = test system: C2C12 mouse skeletal muscle myotubes; assay: 3H-2-deoxyglucose uptake by fully differentiated C2C12 myotubes; assay type: cell-based; conditions: C2C12 myotubes, SEQ ID NO: 73 alone or together with insulin (FIG. 8)
Experimental: In particular: HBD1 SEQ ID NO: 73 (C18:0-HLGLEEPKK) at 0.8 μM, 1.5 μM, and 2.3 μM; or 1.5 μM SEQ ID NO: 73 (C18:0-HLGLEEPKK) for 2, 4, and 16 hours prior to testing glucose uptake.
The studies were performed using cultured, fully differentiated C2C12 mouse skeletal muscle myotubes. The cells were prepared by growing C2C12 cells to confluent density in DMEM with 25 mM glucose and 10% fetal bovine serum in 24 well plates. At this time, the medium was changed to differentiation medium (DMEM with 25 mM glucose and 2% horse serum) for 6 days with medium changed every third day. The various treatments were diluted in serum-free medium and, after washing the cells with serum-free medium, were added to the cells and incubated for 2 hours or alternative times, depending on the treatment. At the end of incubation period, the media was removed and 1.0 ml of glucose-free Krebs ringer bicarbonate buffer (pH 7.4), containing the same treatments, was added and incubation continued for 10 minutes. At the end of the 10 min incubation period, ^3H-2-deoxyglucose ([…]) (specific activity=8 Ci/mmole) was added directly to all wells, and the incubation continued for an additional […]. The wells were then rinsed three times with ice cold phosphate buffered saline, the cells were extracted with 0.5 N NaOH, and the ^3H-2-deoxyglucose content of the cell lysate quantitated by scintillation counting.

| Molecule | glucose uptake by 3T3-LI adipocytes (3T3-LI adipocytes) | body weight and fat accumulation (mice) | glucose tolerance (mice) | effect of blocker on SEQ ID NO: 73-induced AMPK phosphorylation (AMPK) | effect of blocker on SEQ ID NO: 73-stimulated glucose uptake [1] |
| --- | --- | --- | --- | --- | --- |
| HHLGLEEPKK [SEQ ID NO: 16] | stimulated increased glucose uptake | – | – | – | – |
| HLGLEEPKK [SEQ ID NO: 10] | stimulated increased glucose uptake | – | – | – | – |
| KHHLGLEEPKKLR [SEQ ID NO: 1] | stimulated increased glucose uptake | decrease body weight and fat accumulation | no effect | – | – |
| c1cc(-c2cnn3cc(-c4ccc(OCCN5CCCCC5)cc4)cnc23)ccn1 [Compound C, reference compound] | – | – | – | completely abolished; also recorded: prevented | completely abolished; also recorded: prevented |

Source: patent publication US11192932B2, “Heparin-binding domain of IGFBP-2 in the treatment of metabolic disorders” (Amolyt Pharma, priority 2018, dated 2021)
